Like-named read-outs stand apart in the source and are kept apart here.
What was measured:
hNAAA [1] = biological target: T1, hNAAA (Homo sapiens (Human), UniProt Q02083); experiment: Inhibition kinetics of hNAAA (pre-incubation, Lineweaver-Burk plot, rapid dilution); type: biochemical
Protocol: The curves represent 15 minutes (filled circles, solid line) and 3 hours (open circles, dotted line) preincubation of hNAAA with NAAA inhibitor Example 4.
Example 4 inhibition kinetics of hNAAA (reversible or irreversible) was investigated using two methods: (1) Short (15 min) and long (180 min) pre-incubation of the inhibitor and enzyme prior to addition of N-(4-methyl coumarin) palmitamide (PAMCA) substrate (FIG. 1). Example's 4 inhibition concentration (IC50) was unaffected by longer pre-incubation of hNAAA with 4.

TNBS-induced colitis = TNBS-induced colitis in mice; type: in vivo
Protocol: NAAA inhibitor Example 4 (10 mg/kg bid, ip) *p<0.05 versus the TNBS untreated group.
PEA (10 mg/kg) and NAAA inhibitor Example 4 (AM; 10 mg/kg bid, ip). Mice were sacrificed on day 3 after administration. Effects of PEA and Example 4 on colon weight/length ratio, feces and MPO activity, mRNA expression of F4-80, CD11b, IL-12, TNF-α, MCP-1 and IL-1β expression measured by ELISA. #p<0.05; ##p<0.005; ###p<0.001 versus control mice; *p<0.05 versus the TNBS-untreated group.
TNBS-induced colitis is accompanied by increased pro-inflammatory cytokines expression in the liver and brain. Effects of PEA administration and NAAA inhibition with Example 4 (10 mg/kg b.i.d) on pro-inflammatory cytokines expression in (A) the liver and (B) brain. Results are expressed as mean±SEM with n=10mice/group. *p<0.05; **p<0.005; ***p<0.001 versus the TNBS untreated group.
Applicants also studied the compound of Example 4 in animal models of trinitrobenzene sulfonic acid (TNBS)- and dextran sodium sulfate (DSS)-induced colitis. This study aimed to investigate the effects of inhibiting NAAA responsible for PEA hydrolysis in colon inflammation in order to propose a potential therapeutic target for inflammatory bowel diseases. PEA is a known anti-inflammatory compound with analgesic, neuroprotective and anti-allergic properties, and was recently shown to exert PPARα dependent beneficial effects on colon inflammation [Laboratory Investigation; a Journal of Technical Methods and Pathology. 2004; 84: 1643-54].

hNAAA [2] = biological target: T1, hNAAA; experiment: Fluorescence-based NAAA inhibition assay with fluorogenic substrate PAMCA;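 further: compound preincubated 15 min at room temperature with hNAAA, then PAMCA added at 5 µM, reacted 120 min at 37 °C, AMC release read by fluorescence (ex 360, em 460 nm)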
Protocol: For three point concentration inhibition assays with hNAAA the following procedure is used. […] These samples are allowed to incubate for 15 min at room temperature and then 10 μL of a PAMCA stock solution in DMSO (final PAMCA concentration [5 μM]) was added. After 5 minutes of agitation on a shaking plate, the reaction is allowed to proceed at 37° C. for 120 minutes, with fluorescence readings taken every 10 minutes at a wavelength of 460 nm (using an excitation wavelength of 360 nm) on a Synergy HT Plate Reader using Gen5 software from Bio-Tek. The enzyme activity is calculated by converting the relative fluorescence units to AMC formed, using a standard curve of AMC. […] The assay procedure used is the same as the three point assay. […] After 5 minutes of agitation on a shaking plate, the reaction is allowed to proceed at 37° C. for 120 minutes Inhibition constants are calculated using pro Fit software (Quantum Soft, Uetikon am See, Switzerland) and a Levenberg-Marquardt algorithm.
For three point concentration inhibition assays with hNAAA the following procedure is used. […] These samples are allowed to incubate for 15 min at room temperature and then 10 μL of a PAMCA stock solution in DMSO (final PAMCA concentration [5 μM]) was added. After 5 minutes of agitation on a shaking plate, the reaction is allowed to proceed at 37° C. for 120 minutes, with fluorescence readings taken every 10 minutes at a wavelength of 460 nm (using an excitation wavelength of 360 nm) on a Synergy HT Plate Reader using Gen5 software from Bio-Tek. The enzyme activity is calculated by converting the relative fluorescence units to AMC formed, using a standard curve of AMC.
The assay procedure used is the same as the three point assay. […] After 5 minutes of agitation on a shaking plate, the reaction is allowed to proceed at 37° C. for 120 minutes. Inhibition constants are calculated using pro Fit software (Quantum Soft, Uetikon am See, Switzerland) and a Levenberg-Marquardt algorithm.

[3] = 10 mg/kg bid, ip, sacrificed day 3
[4] = read-out: NAAA Inhibition IC50 μM, purified hNAAA, PAMCA 5 μM, pH 4.5

T1 sequence (Q02083 29-125): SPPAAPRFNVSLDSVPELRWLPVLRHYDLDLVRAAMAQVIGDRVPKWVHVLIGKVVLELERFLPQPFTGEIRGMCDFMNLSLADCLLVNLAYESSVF
T1 sequence (Q02083 126-359): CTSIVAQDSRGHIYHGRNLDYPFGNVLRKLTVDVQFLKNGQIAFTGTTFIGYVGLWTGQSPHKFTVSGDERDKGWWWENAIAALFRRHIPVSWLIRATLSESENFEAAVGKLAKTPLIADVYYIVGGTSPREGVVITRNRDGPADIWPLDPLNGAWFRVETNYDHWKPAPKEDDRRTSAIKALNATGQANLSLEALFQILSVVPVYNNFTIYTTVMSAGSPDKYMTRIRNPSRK

IC50 (hNAAA [2])	Compound	IC50 (hNAAA [2]; [4])	also measured
0.01 to 0.1 µM	N#CN1CC(COCc2ccc(-c3ccccc3)cc2)C1 [Example 86, 3-(([1,1′-Biphenyl]-4-ylmethoxy)methyl)azetidine-1-carbonitrile]	–	–
0.01 to 0.1 µM	N#CN1CC(OCc2ccc(-c3cc(C(F)(F)F)cc(C(F)(F)F)c3)cc2)C1 [Example 71, 3-((3′,5′-Bis(trifluoromethyl)-[1,1′-biphenyl]-4-yl)methoxy)azetidine-1-carbonitrile]	–	–
–	N#Cc1ncc(OCc2ccc(-c3ccccc3)cc2)cc1F [Example 112, 5-([1,1′-Biphenyl]-4-ylmethoxy)-3-fluoropicolinonitrile]	> 1 µM	–
0.01 to 0.1 µM	N#CN1CC(OCc2ccc(-c3ccc4c(c3)OCO4)cc2)(c2ccccc2)C1 [Example 97, 3-((4-(Benzo[d][1,3]dioxol-5-yl)benzyl)oxy)-3-phenylazetidine-1-carbonitrile]	–	–
0.01 to 0.1 µM	Cc1ccc(-c2ccc(COC3CN(C#N)C3)cc2)cc1 [Example 76, 3-((4′-Methyl-[1,1′-biphenyl]-4-yl)methoxy)azetidine-1-carbonitrile]	–	–
–	Cn1cc(-c2ccc(COC3CC(N=C=S)C3)c(F)c2)cn1 [Example 46, 4-(3-Fluoro-4-(((1R,3R)-3-isothiocyanatocyclobutoxy)methyl)phenyl)-1-methyl-1H-pyrazole]	0.11 to 1 µM	–
–	S=C=NCCCCCc1ccccc1 [Example 2, (5-Isothiocyanatopentyl)benzene]	> 1 µM	–
–	Fc1cc(Br)ccc1COC1CC(N=C=S)C1 [Example 44, 4-Bromo-2-fluoro-1-(((1R,3R)-3-isothiocyanatocyclobutoxy)methyl)benzene]	0.11 to 1 µM	–
–	S=C=N[C@H]1C[C@H](OCc2ccc(-c3ccccc3)cc2)C1 [Example 30, 4-(((1R,3R)-3-isothiocyanatocyclobutoxy)methyl)-1,1′-biphenyl]	> 1 µM	–

Compound	IC50 (hNAAA [2])	IC50 (hNAAA [2]; [4])	also measured
S=C=NCCCCCCCCCCc1ccccc1 [Example 4, (10-Isothiocyanatodecyl)benzene]	0.01 to 0.1 µM	–	Effect of longer pre-incubation on IC50 (hNAAA [1]; 15 min vs 180 min pre-incubation of inhibitor and enzyme before PAMCA): unaffected; Type of inhibition (Lineweaver-Burk plot) (hNAAA [1]; PAMCA at different concentrations, inhibitor 50 nM): competitive type inhibitor; Mode of inhibition (reversibility) (hNAAA [1]; conclusion from pre-incubation and rapid dilution): reversible and non-covalent inhibitor; Recovery of enzyme activity in rapid dilution experiment (hNAAA [1]; dilution to inhibitor concentration below IC50): fully recovered; Pro-inflammatory cytokines and chemokines expression in the liver and brain (TNBS-induced colitis; 10 mg/kg b.i.d, liver and brain): decreased; PEA levels in the colon (TNBS-induced colitis; 10 mg/kg bid, ip, TNBS-induced colitis): increased; Expression of pro-inflammatory cytokines and chemokines in colon (TNBS-induced colitis; 10 mg/kg bid, ip, colon): reduced; Leukocyte infiltration and activation (MPO activity, F4-80 and CD11b expression) (TNBS-induced colitis; 10 mg/kg bid, ip, colon): reduced; All measured parameters of colon inflammation (TNBS-induced colitis; [3]): decreased; Colon weight/length ratio (TNBS-induced colitis; [3]): reduced; Weight of the cecal content (TNBS-induced colitis; [3]): reduced
Cc1ccc(-c2ccc(CO[C@H]3C[C@H](N=C=S)C3)cc2)cc1 [Example 28, 4-(((1R,3R)-3-Isothiocyanatocyclobutoxy)methyl)-4′-methyl-1,1′-biphenyl]	0.11 to 1 µM	–	–
Fc1ccc(-c2ccc(CO[C@H]3C[C@@H](N=C=S)C3)c(F)c2)cc1 [Example 32, 3,4′-Difluoro-4-(((1S,3S)-3-isothiocyanatocyclobutoxy)methyl)-1,1′-biphenyl]	0.11 to 1 µM	–	–

Reference: patent US9963444B2, “N-acylethanolamine hydrolyzing acid amidase (NAAA) inhibitors and their use thereof” (Northeastern University, priority 2014, dated 2018)
